Test results: patent publication US12723063B2, “GIPR-agonist compounds” (Eli Lilly and Company, priority 2019, dated 2026)
*1 amine or outer side, *2 acyl side, *3 side chain or, on linkers, in order; H or OH if unused. Where a SMILES comes first, the peptide text is derived from it. Side-chain parts run from the residue outwards. [ ]: non-standard residue; d: D form. The star is where a group is joined. C20 diacid = O=C(O)CCCCCCCCCCCCCCCCCCC(=O)*; C18 diacid = O=C(O)CCCCCCCCCCCCCCCCC(=O)*; αMePhe(2-F) = C[C@](N)(Cc1ccccc1F)C(=O)O; γGlu = O=C(O)[C@H](CCC(=O)[*:2])N[*:1]; αMeF = C[C@](N)(Cc1ccccc1)C(=O)O; AEEA = NCCOCCOCC(=O)O; Aib = CC(C)(N)C(=O)O

Key:
human GLP-1R = target: T1, human GLP-1R (Homo sapiens, UniProt P43220); assay: [125I]-GLP-1 binding, SPA with WGA beads, 0.1% bacitracin; conditions: geometric mean, read-out: hGLP1R Ki
T1 construct: expressed in transfected cells; crude membranes
How it was run: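 Binding buffer was 25 mM HEPES pH 7.4 with 2.5 mM CaCl2, 1 mM MgCl2, 0.1% (w/v) bacitracin, 0.003% Tween-20 and EDTA-free protease inhibitors. Four-parameter regression gave IC50, converted to Ki (geometric mean, SEM, n independent days).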

human GIPR = target: T2, human GIPR (Homo sapiens, UniProt P48546); assay: [125I]-GIP binding, SPA with WGA beads, 0.1% bacitracin; conditions: geometric mean, read-out: hGIPR Ki
T2 construct: expressed in transfected cells; crude membranes
T2 sequence (P48546 22-466): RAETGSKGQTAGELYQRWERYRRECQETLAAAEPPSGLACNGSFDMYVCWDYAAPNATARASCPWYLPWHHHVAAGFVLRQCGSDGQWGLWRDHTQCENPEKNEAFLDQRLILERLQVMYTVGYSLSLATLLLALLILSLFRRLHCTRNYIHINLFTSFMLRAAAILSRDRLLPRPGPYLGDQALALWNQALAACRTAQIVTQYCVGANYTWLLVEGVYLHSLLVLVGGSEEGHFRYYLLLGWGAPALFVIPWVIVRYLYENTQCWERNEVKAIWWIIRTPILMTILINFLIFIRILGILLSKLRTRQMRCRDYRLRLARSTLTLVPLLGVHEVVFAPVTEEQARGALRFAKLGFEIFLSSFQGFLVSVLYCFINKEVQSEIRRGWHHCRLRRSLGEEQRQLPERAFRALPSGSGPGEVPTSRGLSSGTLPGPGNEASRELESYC
How it was run: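 Ki values are geometric means (SEM, n independent days), derived from four-parameter nonlinear regression of IC50. Membranes came from hGIPR-expressing CHO cells.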

T1 sequence (P43220 24-463): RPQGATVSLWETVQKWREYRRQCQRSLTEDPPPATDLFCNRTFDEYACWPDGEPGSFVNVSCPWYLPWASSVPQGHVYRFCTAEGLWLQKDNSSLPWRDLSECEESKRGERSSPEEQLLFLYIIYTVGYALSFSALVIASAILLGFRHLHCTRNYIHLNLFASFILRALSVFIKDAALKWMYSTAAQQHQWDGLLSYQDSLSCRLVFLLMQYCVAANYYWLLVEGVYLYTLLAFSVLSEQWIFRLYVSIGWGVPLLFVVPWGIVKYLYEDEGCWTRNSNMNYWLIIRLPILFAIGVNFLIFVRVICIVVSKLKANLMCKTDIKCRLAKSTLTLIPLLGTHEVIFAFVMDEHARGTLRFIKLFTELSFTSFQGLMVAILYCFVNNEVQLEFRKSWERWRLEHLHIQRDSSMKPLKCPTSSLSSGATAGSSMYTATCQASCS

SMILES | Ki (human GLP-1R) [nM] | Ki (human GIPR) [nM]
CC[C@H](C)[C@H](NC(=O)[C@H](Cc1ccccc1)NC(=O)[C@@H](NC(=O)CNC(=O)[C@H](CCC(=O)O)NC(=O)C(C)(C)NC(=O)[C@@H](N)Cc1ccc(O)cc1)[C@@H](C)O)C(=O)N[C@@H](CO)C(=O)N[C@@H](CC(=O)O)C(=O)N[C@@H](Cc1ccc(O)cc1)C(=O)N[C@@H](CO)C(=O)N[C@H](C(=O)NC(C)(C)C(=O)N[C@@H](CC(C)C)C(=O)N[C@@H](CC(=O)O)C(=O)N[C@@H](CCCCN)C(=O)N[C@@H](CCCCNC(=O)COCCOCCNC(=O)COCCOCCNC(=O)CC[C@H](NC(=O)CCCCCCCCCCCCCCCCC(=O)O)C(=O)O)C(=O)N[C@@H](Cc1c[nH]cn1)C(=O)N[C@@H](CCC(N)=O)C(=O)NC(C)(C)C(=O)N[C@@H](CC(=O)O)C(=O)N[C@@H](Cc1ccccc1)C(=O)N[C@H](C(=O)N[C@@H](CCC(=O)O)C(=O)N[C@@H](Cc1ccncc1)C(=O)N[C@@H](CC(C)C)C(=O)N[C@@H](CC(C)C)C(=O)N[C@@H](C)C(=O)NCC(=O)NCC(=O)N1CCC[C@H]1C(=O)N[C@@H](CO)C(=O)N[C@@H](CO)C(=O)NCC(=O)N[C@@H](C)C(=O)N1CCC[C@H]1C(=O)N1CCC[C@H]1C(=O)N1CCC[C@H]1C(=O)N[C@@H](CO)C(N)=O)C(C)C)[C@@H](C)CC [Example 24] | 729 | 0.254
CC[C@H](C)[C@H](NC(=O)[C@H](CO)NC(=O)[C@H](Cc1ccc(O)cc1)NC(=O)[C@H](CC(=O)O)NC(=O)[C@H](CO)NC(=O)[C@@H](NC(=O)[C@](C)(Cc1ccccc1)NC(=O)[C@@H](NC(=O)CNC(=O)[C@H](CCC(=O)O)NC(=O)C(C)(C)NC(=O)[C@@H](N)Cc1ccc(O)cc1)[C@@H](C)O)[C@@H](C)CC)C(=O)N[C@@H](C)C(=O)N[C@@H](CC(C)C)C(=O)N[C@@H](CC(=O)O)C(=O)N[C@@H](CCCCN)C(=O)N[C@@H](CCCCNC(=O)COCCOCCNC(=O)COCCOCCNC(=O)CC[C@H](NC(=O)CCCCCCCCCCCCCCCCCCC(=O)O)C(=O)O)C(=O)N[C@@H](Cc1c[nH]cn1)C(=O)N[C@@H](CCC(N)=O)C(=O)NC(C)(C)C(=O)N[C@@H](CCC(=O)O)C(=O)N[C@@H](Cc1ccccc1)C(=O)N[C@H](C(=O)N[C@@H](CC(N)=O)C(=O)N[C@@H](Cc1c[nH]c2ccccc12)C(=O)N[C@@H](CC(C)C)C(=O)N[C@@H](CC(C)C)C(=O)N[C@@H](C)C(=O)NCC(=O)NCC(=O)N1CCC[C@H]1C(=O)N[C@@H](CO)C(=O)N[C@@H](CO)C(=O)NCC(=O)N[C@@H](C)C(=O)N1CCC[C@H]1C(=O)N1CCC[C@H]1C(=O)N1CCC[C@H]1C(=O)N[C@@H](CO)C(N)=O)C(C)C [Example 25] (H-Y[Aib]EGT[αMeF]ISDYSIALDKK([AEEA-AEEA-γGlu-C20 diacid])HQ[Aib]EFVNWLLAGGPSSGAPPPS-NH2) | 15.8 | 0.0417
CC[C@H](C)[C@H](NC(=O)[C@H](CO)NC(=O)[C@H](Cc1ccc(O)cc1)NC(=O)[C@H](CC(=O)O)NC(=O)[C@H](CO)NC(=O)[C@@H](NC(=O)[C@](C)(Cc1ccccc1F)NC(=O)[C@@H](NC(=O)CNC(=O)[C@H](CCC(=O)O)NC(=O)C(C)(C)NC(=O)[C@@H](N)Cc1ccc(O)cc1)[C@@H](C)O)[C@@H](C)CC)C(=O)N[C@@H](C)C(=O)N[C@@H](CC(C)C)C(=O)N[C@@H](CC(=O)O)C(=O)N[C@@H](CCCCN)C(=O)N[C@@H](CCCCNC(=O)COCCOCCNC(=O)COCCOCCNC(=O)CC[C@H](NC(=O)CCCCCCCCCCCCCCCCCCC(=O)O)C(=O)O)C(=O)N[C@@H](Cc1c[nH]cn1)C(=O)N[C@@H](CCC(N)=O)C(=O)NC(C)(C)C(=O)N[C@@H](CCC(=O)O)C(=O)N[C@@H](Cc1ccccc1)C(=O)N[C@H](C(=O)N[C@@H](CC(N)=O)C(=O)N[C@@H](Cc1c[nH]c2ccccc12)C(=O)N[C@@H](CC(C)C)C(=O)N[C@@H](CC(C)C)C(=O)N[C@@H](C)C(=O)NCC(=O)NCC(=O)N1CCC[C@H]1C(=O)N[C@@H](CO)C(=O)N[C@@H](CO)C(=O)NCC(=O)N[C@@H](C)C(=O)N1CCC[C@H]1C(=O)N1CCC[C@H]1C(=O)N1CCC[C@H]1C(=O)N[C@@H](CO)C(N)=O)C(C)C [Example 26] (H-Y[Aib]EGT[αMePhe(2-F)]ISDYSIALDKK([AEEA-AEEA-γGlu-C20 diacid])HQ[Aib]EFVNWLLAGGPSSGAPPPS-NH2) | 16.5 | 0.045
CC[C@H](C)[C@H](NC(=O)[C@H](CO)NC(=O)[C@H](Cc1ccc(O)cc1)NC(=O)[C@H](CC(=O)O)NC(=O)[C@H](CO)NC(=O)[C@@H](NC(=O)[C@H](Cc1ccccc1)NC(=O)[C@@H](NC(=O)CNC(=O)[C@H](CCC(=O)O)NC(=O)[C@@H](C)NC(=O)[C@@H](N)Cc1ccc(O)cc1)[C@@H](C)O)[C@@H](C)CC)C(=O)N[C@@H](CC(C)C)C(=O)N[C@@H](CC(C)C)C(=O)N[C@@H](CC(=O)O)C(=O)N[C@@H](CCCCN)C(=O)N[C@@H](CCCCNC(=O)COCCOCCNC(=O)COCCOCCNC(=O)CC[C@H](NC(=O)CCCCCCCCCCCCCCCCC(=O)O)C(=O)O)C(=O)N[C@@H](C)C(=O)N[C@@H](CCC(N)=O)C(=O)NC(C)(C)C(=O)N[C@@H](CCC(=O)O)C(=O)N[C@@H](Cc1ccccc1)C(=O)N[C@H](C(=O)N[C@@H](CCC(N)=O)C(=O)N[C@@H](Cc1c[nH]c2ccccc12)C(=O)N[C@@H](CC(C)C)C(=O)N[C@@H](CC(C)C)C(=O)N[C@@H](C)C(=O)NCC(=O)NCC(=O)N1CCC[C@H]1C(=O)N[C@@H](CO)C(=O)N[C@@H](CO)C(=O)NCC(=O)N[C@@H](C)C(=O)N1CCC[C@H]1C(=O)N1CCC[C@H]1C(=O)N1CCC[C@H]1C(=O)N[C@@H](CO)C(N)=O)C(C)C [Example 27] (H-Y[dA]EGTFISDYSILLDKK([AEEA-AEEA-γGlu-C18 diacid])AQ[Aib]EFVQWLLAGGPSSGAPPPS-NH2) | 23.2 | 0.0354
CC[C@H](C)[C@H](NC(=O)[C@H](CO)NC(=O)[C@H](Cc1ccc(O)cc1)NC(=O)[C@H](CC(=O)O)NC(=O)[C@H](CO)NC(=O)[C@@H](NC(=O)[C@H](Cc1ccccc1)NC(=O)[C@@H](NC(=O)CNC(=O)[C@H](CCC(=O)O)NC(=O)[C@@H](C)NC(=O)[C@@H](N)Cc1ccc(O)cc1)[C@@H](C)O)[C@@H](C)CC)C(=O)N[C@@H](CC(C)C)C(=O)N[C@@H](CC(C)C)C(=O)N[C@@H](CC(=O)O)C(=O)N[C@@H](CCCCN)C(=O)N[C@@H](CCCCNC(=O)COCCOCCNC(=O)COCCOCCNC(=O)CC[C@H](NC(=O)CCCCCCCCCCCCCCCCC(=O)O)C(=O)O)C(=O)N[C@@H](C)C(=O)N[C@@H](CCC(N)=O)C(=O)NC(C)(C)C(=O)N[C@@H](CCC(=O)O)C(=O)N[C@@H](Cc1ccccc1)C(=O)N[C@H](C(=O)N[C@@H](CC(N)=O)C(=O)N[C@@H](Cc1c[nH]c2ccccc12)C(=O)N[C@@H](CC(C)C)C(=O)N[C@@H](CC(C)C)C(=O)N[C@@H](CCC(=O)O)C(=O)NCC(=O)NCC(=O)N1CCC[C@H]1C(=O)N[C@@H](CO)C(=O)N[C@@H](CO)C(=O)NCC(=O)N[C@@H](C)C(=O)N1CCC[C@H]1C(=O)N1CCC[C@H]1C(=O)N1CCC[C@H]1C(=O)N[C@@H](CO)C(N)=O)C(C)C [Example 28] (H-Y[dA]EGTFISDYSILLDKK([AEEA-AEEA-γGlu-C18 diacid])AQ[Aib]EFVNWLLEGGPSSGAPPPS-NH2) | 6.46 | 0.0732
